Measured values published in patent publication US20130274338A1, “PHARMACEUTICAL COMPOSITIONS COMPRISING DGLA, 15-OHEPA, AND/OR 15-HETRE AND METHODS OF REDUCING SEBUM PRODUCTION USING SAME” (priority 2012, published 2013).

Tested on: P. acnes
Test: Agar dilution method, growth of P. acnes and MIC, combinations with a fatty acid spike
Format: cell-based, Propionibacterium acnes
Parameters: key to Growth Index Plate 1 / Growth Index Plate 2 / Growth Index Plate 3 / Growth Index Avg: +++: confluent growth (comparable to control); ++: less confluent growth; +: marked reduction in growth to multiple tiny, single colonies; −: no growth present
Procedure: Several compounds including fatty acids such as DGLA, 15-OHEPA, and 15-HETrE were tested to determine their capacity to inhibit the growth of P. acnes. In an exemplary method, an agar dilution method was used to determine the minimum inhibitory concentration (MIC) of each tested compound. Briefly, the agar dilution method involved preparing a series of concentrations of each compound (e.g., nicotinamide, benzoyl peroxide, adapalene, metronidazole, DGLA, 15-OHEPA, and 15-HETrE) in a Reinforced Clostridial Agar (RCA) media that facilitates growth of P. acnes under anaerobic conditions. An inoculum of P. acnes was prepared by incubation of P. acnes for approximately seven days at 35-37° C. to achieve a ≧1.0 OD600 inoculum of P. acnes in RCM broth. A portion of this inoculum was then added to the surface of each plate as a 10 μL spot and incubated at 35-37° C. for 72 hours or more. Growth of P. acnes was then observed and compared to control plates in which no compound has been added, and positive inhibition plates prepared with erythromycin. […] The growth of P. acnes in the presence of nicotinamide, benzoyl peroxide, adapalene, metronidazole, DGLA, 15-OHEPA, and 15-HETrE was determined with varying concentrations of the compound (see, Table 2). Next, the MIC was determined as the concentration at which a marked reduction (+) occurs in the appearance of growth on the test plate (as per Clinical and Laboratory Standards Institute M11-A7).
The compounds tested singly in Example 1 were tested in combination with one another to determine the capacity of the combination to inhibit the growth of P. acnes. In an exemplary method, the MIC was determined for each of the combination as described in Example 1. Briefly, test combinations included DGLA with nicotinamide, benzoyl peroxide, adapalene, or metronidazole; 15-HETrE with nicotinamide, benzoyl peroxide, adapalene, or metronidazole; and 15-OHEPA with nicotinamide, benzoyl peroxide, adapalene, or metronidazole. The tables below show the growth of P. acnes in the presence of 0.4 or 1.0 mg/mL DGLA with varying concentrations of nicotinamide, benzoyl peroxide, adapalene, or metronidazole (Table 3); the growth of P. acnes in the presence of 0.01 or 0.05 mg/mL 15-HETrE with varying concentrations of nicotinamide, benzoyl peroxide, adapalene, or metronidazole (Table 5); and the growth of P. acnes in the presence of 0.5 or 0.1 mg/mL 15-OHEPA with varying concentrations of nicotinamide, benzoyl peroxide, adapalene, or metronidazole (Table 7).

[1] = compound at 0.2 mg/mL + 0.01 mg/mL 15-HETrE
[2] = compound at 0.2 mg/mL + 0.05 mg/mL 15-HETrE
[3] = compound at 0.2 mg/mL + 0.05 mg/mL 15-OHEPA
[4] = compound at 0.2 mg/mL + 0.1 mg/mL 15-OHEPA
[5] = compound at 0.2 mg/mL + 0.4 mg/mL dGLA
[6] = compound at 0.2 mg/mL + 1.0 mg/mL dGLA
[7] = compound at 0.4 mg/mL + 0.01 mg/mL 15-HETrE
[8] = compound at 0.4 mg/mL + 0.05 mg/mL 15-HETrE
[9] = compound at 0.4 mg/mL + 0.05 mg/mL 15-OHEPA
[10] = compound at 0.4 mg/mL + 0.1 mg/mL 15-OHEPA
[11] = compound at 0.4 mg/mL + 0.4 mg/mL dGLA
[12] = compound at 0.4 mg/mL + 1.0 mg/mL dGLA
[13] = compound at 0.6 mg/mL + 0.01 mg/mL 15-HETrE
[14] = compound at 0.6 mg/mL + 0.05 mg/mL 15-HETrE
[15] = compound at 0.6 mg/mL + 0.05 mg/mL 15-OHEPA
[16] = compound at 0.6 mg/mL + 0.1 mg/mL 15-OHEPA
[17] = compound at 0.6 mg/mL + 0.4 mg/mL dGLA
[18] = compound at 0.6 mg/mL + 1.0 mg/mL dGLA
[19] = compound at 0.8 mg/mL + 0.01 mg/mL 15-HETrE
[20] = compound at 0.8 mg/mL + 0.05 mg/mL 15-HETrE
[21] = compound at 0.8 mg/mL + 0.05 mg/mL 15-OHEPA
[22] = compound at 0.8 mg/mL + 0.1 mg/mL 15-OHEPA
[23] = compound at 0.8 mg/mL + 0.4 mg/mL dGLA
[24] = compound at 0.8 mg/mL + 1.0 mg/mL dGLA
[25] = compound at 1.0 mg/mL + 0.01 mg/mL 15-HETrE
[26] = compound at 1.0 mg/mL + 0.05 mg/mL 15-HETrE
[27] = compound at 1.0 mg/mL + 0.05 mg/mL 15-OHEPA
[28] = compound at 1.0 mg/mL + 0.1 mg/mL 15-OHEPA
[29] = compound at 1.0 mg/mL + 0.4 mg/mL dGLA
[30] = compound at 1.0 mg/mL + 1.0 mg/mL dGLA

Structure (SMILES): Cc1ncc([N+](=O)[O-])n1CCO [Metronidazole]
- Growth Index Avg [1]: +++
- Growth Index Plate 1 [1]: +++
- Growth Index Plate 2 [1]: +++
- Growth Index Plate 3 [1]: +++
- Growth Index Avg [2]: −
- Growth Index Plate 1 [2]: −
- Growth Index Plate 2 [2]: −
- Growth Index Plate 3 [2]: −
- Growth Index Avg [3]: +++
- Growth Index Plate 1 [3]: +++
- Growth Index Plate 2 [3]: +++
- Growth Index Plate 3 [3]: +++
- Growth Index Avg [4]: −
- Growth Index Plate 1 [4]: −
- Growth Index Plate 2 [4]: −
- Growth Index Plate 3 [4]: −
- Growth Index Avg [5]: +++
- Growth Index Plate 1 [5]: +++
- Growth Index Plate 2 [5]: +++
- Growth Index Plate 3 [5]: +++
- Growth Index Avg [6]: +++
- Growth Index Plate 1 [6]: +++
- Growth Index Plate 2 [6]: +++
- Growth Index Plate 3 [6]: +++
- Growth Index Avg [7]: +++
- Growth Index Plate 1 [7]: +++
- Growth Index Plate 2 [7]: +++
- Growth Index Plate 3 [7]: +++
- Growth Index Avg [8]: −
- Growth Index Plate 1 [8]: −
- Growth Index Plate 2 [8]: −
- Growth Index Plate 3 [8]: −
- Growth Index Avg [9]: +++
- Growth Index Plate 1 [9]: +++
- Growth Index Plate 2 [9]: +++
- Growth Index Plate 3 [9]: +++
- Growth Index Avg [10]: −
- Growth Index Plate 1 [10]: −
- Growth Index Plate 2 [10]: −
- Growth Index Plate 3 [10]: −
- Growth Index Avg [11]: +++
- Growth Index Plate 1 [11]: +++
- Growth Index Plate 2 [11]: +++
- Growth Index Plate 3 [11]: +++
- Growth Index Avg [12]: +++
- Growth Index Plate 1 [12]: +++
- Growth Index Plate 2 [12]: +++
- Growth Index Plate 3 [12]: +++
- Growth Index Avg [13]: +++
- Growth Index Plate 1 [13]: +++
- Growth Index Plate 2 [13]: +++
- Growth Index Plate 3 [13]: +++
- Growth Index Avg [14]: −
- Growth Index Plate 1 [14]: −
- Growth Index Plate 2 [14]: −
- Growth Index Plate 3 [14]: −
- Growth Index Avg [15]: +++
- Growth Index Plate 1 [15]: +++
- Growth Index Plate 2 [15]: +++
- Growth Index Plate 3 [15]: +++
- Growth Index Avg [16]: −
- Growth Index Plate 1 [16]: −
- Growth Index Plate 2 [16]: −
- Growth Index Plate 3 [16]: −
- Growth Index Avg [17]: +++
- Growth Index Plate 1 [17]: +++
- Growth Index Plate 2 [17]: +++
- Growth Index Plate 3 [17]: +++
- Growth Index Avg [18]: +++
- Growth Index Plate 1 [18]: +++
- Growth Index Plate 2 [18]: +++
- Growth Index Plate 3 [18]: +++
- Growth Index Avg [19]: +++
- Growth Index Plate 1 [19]: +++
- Growth Index Plate 2 [19]: +++
- Growth Index Plate 3 [19]: +++
- Growth Index Avg [20]: −
- Growth Index Plate 1 [20]: −
- Growth Index Plate 2 [20]: −
- Growth Index Plate 3 [20]: −
- Growth Index Avg [21]: +++
- Growth Index Plate 1 [21]: +++
- Growth Index Plate 2 [21]: +++
- Growth Index Plate 3 [21]: ++
- Growth Index Avg [22]: −
- Growth Index Plate 1 [22]: −
- Growth Index Plate 2 [22]: −
- Growth Index Plate 3 [22]: −
- Growth Index Avg [23]: ++
- Growth Index Plate 1 [23]: +++
- Growth Index Plate 2 [23]: ++
- Growth Index Plate 3 [23]: ++
- Growth Index Avg [24]: +++
- Growth Index Plate 1 [24]: +++
- Growth Index Plate 2 [24]: +++
- Growth Index Plate 3 [24]: ++
- Growth Index Avg [25]: +++
- Growth Index Plate 1 [25]: +++
- Growth Index Plate 2 [25]: +++
- Growth Index Plate 3 [25]: +++
- Growth Index Avg [26]: −
- Growth Index Plate 1 [26]: −
- Growth Index Plate 2 [26]: −
- Growth Index Plate 3 [26]: −
- Growth Index Avg [27]: +++
- Growth Index Plate 1 [27]: +++
- Growth Index Plate 2 [27]: ++
- Growth Index Plate 3 [27]: +++
- Growth Index Avg [28]: −
- Growth Index Plate 1 [28]: −
- Growth Index Plate 2 [28]: −
- Growth Index Plate 3 [28]: −
- Growth Index Avg [29]: ++
- Growth Index Plate 1 [29]: ++
- Growth Index Plate 2 [29]: ++
- Growth Index Plate 3 [29]: ++
- Growth Index Avg [30]: ++
- Growth Index Plate 1 [30]: ++
- Growth Index Plate 2 [30]: ++
- Growth Index Plate 3 [30]: ++
- growth of P. Acnes in combination with 15-HETrE, compared with 15-HETrE used alone (in combination with 15-HETrE): did not reduce the growth
- growth of P. Acnes in combination with 15-OHEPA, compared with 15 OHEPA used alone (in combination with 15-OHEPA): did not reduce the growth
- growth of P. Acnes in combination with DGLA, compared with DGLA used alone (in combination with DGLA): did not reduce the growth
